Experimental data taken from ChEMBL document CHEMBL1132018, “Design and synthesis of thiol containing inhibitors of matrix metalloproteinases” (Bioorg Med Chem Lett, 1999).

Columns and labels:
[1] = biological target: Matrix metalloproteinase-9 (Rattus norvegicus, UniProt P50282); assay: In vitro inhibitory activity against matrix metalloprotease-9
Rattus norvegicus [2] = assay: Drug level in plasma was determined 2 hours after administration to 2 rats orally at 75 umol/kg; type: functional, organism-based
Interstitial collagenase [3] = biological target: T1, Interstitial collagenase (Homo sapiens, UniProt P03956); assay: In vitro inhibitory activity against matrix metalloprotease 1
T1 sequence (P03956 whole entry): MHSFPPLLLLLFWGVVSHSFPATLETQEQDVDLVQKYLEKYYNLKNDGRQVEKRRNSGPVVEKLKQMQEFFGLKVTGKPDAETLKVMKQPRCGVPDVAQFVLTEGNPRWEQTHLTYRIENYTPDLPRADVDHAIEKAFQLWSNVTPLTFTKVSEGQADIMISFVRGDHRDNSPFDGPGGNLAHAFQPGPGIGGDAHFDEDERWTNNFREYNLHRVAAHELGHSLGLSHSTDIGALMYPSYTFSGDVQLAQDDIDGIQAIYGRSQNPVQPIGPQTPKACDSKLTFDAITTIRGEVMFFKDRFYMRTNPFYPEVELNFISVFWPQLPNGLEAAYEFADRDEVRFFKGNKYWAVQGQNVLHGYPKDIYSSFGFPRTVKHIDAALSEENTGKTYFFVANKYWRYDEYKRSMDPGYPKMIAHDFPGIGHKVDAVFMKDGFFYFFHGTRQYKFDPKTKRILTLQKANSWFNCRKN

Rattus norvegicus [4] = assay: Drug level in plasma was determined 4 hours after administration to 2 rats orally at 75 umol/kg; type: functional, organism-based
Interstitial collagenase [5] = biological target: T1, Interstitial collagenase; assay: Inhibition of matrix metalloprotease 1 (MMP 1)
Rattus norvegicus [6] = assay: Drug level in plasma was determined 2 hours after administration to 3 rats orally at 75 umol/kg; type: functional, organism-based
Rattus norvegicus [7] = assay: Drug level in plasma was determined 4 hours after administration to 3 rats orally at 75 umol/kg; type: functional, organism-based

Chain of Matrix metalloproteinase-9 (P50282 whole entry): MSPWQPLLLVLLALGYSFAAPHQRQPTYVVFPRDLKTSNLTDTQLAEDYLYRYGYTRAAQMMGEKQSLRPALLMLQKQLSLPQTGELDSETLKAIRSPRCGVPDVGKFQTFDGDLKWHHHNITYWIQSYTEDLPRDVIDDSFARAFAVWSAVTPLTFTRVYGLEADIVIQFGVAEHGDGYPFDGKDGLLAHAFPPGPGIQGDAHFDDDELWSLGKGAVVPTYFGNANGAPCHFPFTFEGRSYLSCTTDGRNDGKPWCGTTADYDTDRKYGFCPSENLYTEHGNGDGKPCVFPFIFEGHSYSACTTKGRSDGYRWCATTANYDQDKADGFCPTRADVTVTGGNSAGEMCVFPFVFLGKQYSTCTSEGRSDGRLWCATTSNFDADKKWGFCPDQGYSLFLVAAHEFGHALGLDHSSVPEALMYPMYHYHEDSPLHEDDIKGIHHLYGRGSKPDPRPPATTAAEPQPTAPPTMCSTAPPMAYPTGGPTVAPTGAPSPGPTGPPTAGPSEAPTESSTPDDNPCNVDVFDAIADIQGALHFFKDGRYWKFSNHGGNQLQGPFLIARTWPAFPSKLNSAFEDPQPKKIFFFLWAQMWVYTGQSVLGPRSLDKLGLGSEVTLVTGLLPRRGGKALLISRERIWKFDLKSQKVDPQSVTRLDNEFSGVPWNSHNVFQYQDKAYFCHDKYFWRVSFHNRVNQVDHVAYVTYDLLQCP

| Compound | IC50 [1] [nM] | IC50 (Interstitial collagenase [3]) [nM] | further results |
| --- | --- | --- | --- |
| CCO[C@H]1CC[C@@](CS)(C(=O)N[C@@H](Cc2ccccc2)C(=O)Nc2ccc(Cl)cc2)CC1 | 79 | 5910 | – |
| CCO[C@H]1CC[C@@](CS)(C(=O)N[C@@H](Cc2ccccc2)C(=O)Nc2ccccc2)CC1 (stereo in doubt; 13) | 49 | 1220 | – |
| CNC(=O)[C@H](Cc1ccccc1)NC(=O)C1(CS)CCCCC1 | 350 | 5030 | – |
| CCO[C@H]1CC[C@@](CS)(C(=O)N[C@@H](Cc2ccc(Cl)cc2)C(=O)Nc2ccccc2)CC1 | 66 | 1940 | – |
| CNC(=O)[C@H](Cc1ccccc1)NC(=O)[C@]1(CS)CC[C@H](C(F)(F)F)CC1 | 108 | 669 | – |
| CCO[C@H]1CC[C@@](CS)(C(=O)N[C@@H](Cc2ccccc2)C(=O)NC2CCCCC2)CC1 | 79 | 2930 | – |
| CCO[C@H]1CC[C@@](CS)(C(=O)N[C@@H](Cc2ccccc2)C(=O)Nc2ccccn2)CC1 | 121 | 3470 | – |
| CCO[C@H]1CC[C@@](CS)(C(=O)N[C@@H](Cc2ccccc2)C(=O)Nc2ccccc2)CC1 (stereo in doubt; 14) | > 10000 | – | – |
| CCCO[C@H]1CC[C@@](CS)(C(=O)N[C@@H](Cc2ccccc2)C(=O)NC)CC1 | 630 | 6030 | – |
| CCO[C@H]1CC[C@@](CS)(C(=O)N[C@@H](Cc2ccc(F)cc2)C(=O)Nc2ccccc2)CC1 | 83 | 6260 | – |
| CNC(=O)[C@H](Cc1ccccc1)NC(=O)[C@]1(CS)CC[C@H](C(C)(C)C)CC1 | > 10000 | – | – |
| CNC(=O)[C@H](Cc1ccccc1)NC(=O)[C@@]1(CS)CCCC(OC)C1 (stereo partly specified) | > 10000 | – | – |
| CCO[C@H]1CC[C@@](CS)(C(=O)N[C@@H](Cc2ccccc2)C(=O)Nc2ccc(N(C)C)cc2)CC1 | 63 | 1330 | – |
| CCC[C@H]1CC[C@@](CS)(C(=O)N[C@@H](Cc2ccccc2)C(=O)NC)CC1 | > 10000 | – | – |
| CCO[C@H]1CC[C@@](CS)(C(=O)N[C@@H](Cc2ccccc2)C(=O)Nc2ccc(OC(F)(F)F)cc2)CC1 | 81 | > 10000 | – |
| CCO[C@H]1CC[C@@](CS)(C(=O)N[C@@H](Cc2ccccc2)C(=O)Nc2ccc(F)cc2)CC1 | 52 | 2150 | – |

The next compounds have a lower IC50 [1] than those just listed; values first:

| IC50 [1] [nM] | IC50 (Interstitial collagenase [3]) [nM] | Compound | further results |
| --- | --- | --- | --- |
| 17 | 135 | CCO[C@H]1CC[C@@](CS)(C(=O)N[C@@H](Cc2ccccc2)C(=O)Nc2cccnc2)CC1 | Plasma concentration (Rattus norvegicus [2]): 253 nM; Plasma concentration (Rattus norvegicus [4]): 289 nM |
| 34 | 3270 | CCOc1ccc(C[C@H](NC(=O)[C@]2(CS)CC[C@H](OCC)CC2)C(=O)Nc2ccccc2)cc1 | – |
| 18 | 700 | CCO[C@H]1CC[C@@](CS)(C(=O)N[C@@H](Cc2ccccc2)C(=O)NC)CC1 | – |
| 24 | 561 | CCO[C@H]1CC[C@@](CS)(C(=O)N[C@@H](Cc2ccccc2)C(=O)NC2CCCC2)CC1 | – |
| 35 | 110 | CNC(=O)[C@H](Cc1ccccc1)NC(=O)[C@]1(CS)CC[C@H](OC)CC1 | – |
| 46 | 1270 | CCO[C@H]1CC[C@@](CS)(C(=O)N[C@@H](Cc2ccccc2)C(=O)Nc2ccc(OC)cc2)CC1 | – |
| 20 | – | CCO[C@H]1CC[C@@](CS)(C(=O)N[C@@H](Cc2ccc(OC)cc2)C(=O)Nc2ccccc2)CC1 | IC50 (Interstitial collagenase [5]): 1060 nM |
| 21 | 564 | CCO[C@H]1CC[C@@](CS)(C(=O)N[C@@H](Cc2cccnc2)C(=O)Nc2ccccc2)CC1 | – |
| 42 | 953 | CCO[C@H]1CC[C@@](CS)(C(=O)N[C@@H](Cc2cccs2)C(=O)Nc2ccccc2)CC1 | – |
| 14 | 739 | CCO[C@H]1CC[C@@](CS)(C(=O)N[C@@H](Cc2ccc(O)cc2)C(=O)Nc2ccccc2)CC1 | – |
| 26 | 823 | CCO[C@H]1CC[C@@](CS)(C(=O)N[C@@H](Cc2ccccc2)C(=O)NCc2ccccc2)CC1 | Plasma concentration (Rattus norvegicus [6]): 837 nM; Plasma concentration (Rattus norvegicus [7]): 491 nM |
| 40 | 680 | CCO[C@H]1CC[C@@](CS)(C(=O)N[C@@H](Cc2ccccc2)C(=O)NC(C)C)CC1 | – |
